Reference: publication PMC8328003 (ACS chemical neuroscience, 2021)
Several values for one entry are separate records, joined by “and”; a condition that tells them apart may be missing. Identical values can stand only once. Like-named read-outs stand apart in the source and are kept apart here.

What was measured:
hα2A = target: T1, hα2A (Homo sapiens, UniProt P08913); experiment: NIMH-PDSP radioligand binding; details: read-out: affinity Ki hα2A
T1 sequence (P08913 1-465): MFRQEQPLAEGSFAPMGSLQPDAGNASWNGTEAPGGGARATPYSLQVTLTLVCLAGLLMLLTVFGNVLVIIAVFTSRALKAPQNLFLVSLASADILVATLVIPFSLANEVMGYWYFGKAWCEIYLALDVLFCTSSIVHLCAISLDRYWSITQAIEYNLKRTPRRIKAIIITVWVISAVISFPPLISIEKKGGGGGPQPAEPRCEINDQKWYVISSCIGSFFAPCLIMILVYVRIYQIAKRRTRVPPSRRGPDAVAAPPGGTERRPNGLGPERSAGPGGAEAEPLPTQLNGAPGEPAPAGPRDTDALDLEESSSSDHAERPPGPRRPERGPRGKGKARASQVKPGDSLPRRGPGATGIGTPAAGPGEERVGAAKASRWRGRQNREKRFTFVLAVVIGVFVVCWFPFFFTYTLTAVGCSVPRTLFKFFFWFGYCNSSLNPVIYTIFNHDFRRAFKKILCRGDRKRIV

[1] = target: human mu opioid receptor (hMOR) (Homo sapiens, UniProt P35372); experiment: cell-based; assay type: cell-based
mDOR [2] = target: T2, mDOR (Mus musculus, UniProt P32300); experiment: Competition binding against 125I-IBNtxA, CHO cell membranes
hDOR [3] = target: T3, hDOR (Homo sapiens, UniProt P41143); experiment: BRET Gi-1 activation, HEK293T cells; assay type: cell-based; details: for Emax% ± SEM Gi-1 activation hDOR: normalized to control agonist (DPDPE; SNC80 in Figure 6G)
hMOR [4] = target: T4, hMOR (Homo sapiens, UniProt P35372); experiment: NIMH-PDSP radioligand binding; details: read-out: affinity Ki hMOR
[5] = target: human kappa opioid receptor (hKOR) (Homo sapiens, UniProt P41145); experiment: BRET Gi-1 activation, HEK293T cells; assay type: cell-based; details: for pEC50 ± SEM Gi-1 activation hKOR / EC50: BRET; for EC50: read-out: EC50 Gi-1 activation hKOR
hSERT = hSERT (Homo sapiens, UniProt P31645); experiment: NIMH-PDSP radioligand binding; details: read-out: affinity Ki hSERT
mKOR = mKOR (Mus musculus, UniProt P33534); experiment: [35S]GTPγS functional assay, CHO membranes; assay type: biochemical; details: for mKOR Emax: relative to U50,488H at 1000 nM
hMOR [6] = target: T4, hMOR; assay type: cell-based
C57BL/6J mice [7] = experiment: 55 °C warm-water tail-withdrawal assay; assay type: in vivo, mouse; details: for antinociception ED50 (and 95% C.I.): WT C57BL/6J mice, from peak effect
hKOR [8] = target: T5, hKOR (Homo sapiens, UniProt P41145); experiment: BRET βarrestin-2 recruitment, HEK293T cells; assay type: cell-based; details: for pEC50 ± SEM βarrestin-2 recruitment hKOR / EC50: BRET; for EC50: read-out: EC50 βarrestin-2 recruitment hKOR
mDOR [9] = target: T2, mDOR; experiment: [35S]GTPγS functional assay, CHO membranes; assay type: biochemical; details: for mDOR Emax: relative to DPDPE at 1000 nM
hKOR [10] = target: T5, hKOR; experiment: NIMH-PDSP radioligand binding; details: read-out: affinity Ki hKOR
[11] = target: mouse kappa opioid receptor (mKOR) (Mus musculus, UniProt P33534); experiment: Competition binding against 125I-IBNtxA, CHO cell membranes
hMOR [12] = target: T4, hMOR; assay type: cell-based; remark: listed apart in the source
hDAT = hDAT (Homo sapiens, UniProt Q01959); experiment: NIMH-PDSP radioligand binding; details: read-out: affinity Ki hDAT
hH1 = hH1 (Homo sapiens, UniProt P35367); experiment: NIMH-PDSP radioligand binding; details: read-out: affinity Ki hH1
mMOR = mMOR (Mus musculus, UniProt P42866); experiment: [35S]GTPγS functional assay, CHO membranes; assay type: biochemical; details: for mMOR Emax: relative to DAMGO at 1000 nM
hDOR [13] = target: T3, hDOR; experiment: BRET βarrestin-2 recruitment, HEK293T cells; assay type: cell-based; details: for Emax% ± SEM βarrestin-2 recruitment hDOR: normalized to DPDPE
hMOR [14] = target: T4, hMOR; experiment: BRET βarrestin-2 recruitment, HEK293T cells; assay type: cell-based
[15] = target: mouse mu opioid receptor (mMOR) (Mus musculus, UniProt P42866); experiment: Competition binding against 125I-IBNtxA, CHO cell membranes; details: for Ki: 125I-IBNtxA (0.1 nM), CHO membranes
C57BL/6J mice [16] = experiment: CLAMS breathing rate; assay type: in vivo, mouse; details: 100 nmol, i.c.v., 180 min, versus vehicle
hNET = hNET (Homo sapiens, UniProt P23975); experiment: NIMH-PDSP radioligand binding; details: read-out: affinity Ki hNET
C57BL/6J mice [17] = experiment: CLAMS locomotor activity; assay type: in vivo, mouse; details: 100 nmol, i.c.v., 180 min, versus vehicle
MOR = details: ex vivo; cited from earlier work
hNMDA = experiment: NIMH-PDSP radioligand binding; parameters: species or system human; details: read-out: affinity Ki hNMDA
hMOR [18] = details: read-out: binding affinity at hMOR; cited from earlier work
[19] = i.c.v., MOR KO / KOR KO mice versus WT
[20] = affinity (Ki) mDOR, 125I-IBNtxA (0.1 nM)
[21] = affinity (Ki) mKOR, 125I-IBNtxA (0.1 nM)

Compound | Ki (hα2A) [nM] | Emax% ± SEM Gi-1 activation hMOR [1] | Emax% ± SEM Gi-1 activation hDOR (hDOR [3]) [%] | pEC50 ± SEM Gi-1 activation hKOR [5] | Emax% ± SEM Gi-1 activation hKOR ([5]; normalized to U50,488H) [%] | EC50 [5] [nM] | mKOR Emax (mKOR) | receptor dependence of antinociception (C57BL/6J mice [7]; [19]) | pEC50 ± SEM βarrestin-2 recruitment hKOR (hKOR [8]) | Emax% ± SEM βarrestin-2 recruitment hKOR (hKOR [8]; normalized to U50,488H) [%] | EC50 (hKOR [8]) [nM] | mDOR Emax (mDOR [9]) | Ki (hKOR [10]) [nM] | mMOR Emax (mMOR) | Emax% ± SEM βarrestin-2 recruitment hDOR (hDOR [13]) [%] | effect on breath rate (C57BL/6J mice [16]) | locomotor effect (C57BL/6J mice [17]) | fold less potent than DAMGO, Gi-1 hMOR [1] [fold] | mKOR EC50 (mKOR; [35S]GTPγS) | Ki (mDOR [2]; [20]) [nM] | other results
C=C[C@H]1CN2CCc3c([nH]c4cccc(OC)c34)[C@H]2C[C@@H]1/C(=C\OC)C(=O)OC [isopaynantheine] | 2150 | < 20% | < 20 | 6.25 ± 0.066 | 80 | 560 | 93.5 ± 5% | MOR independent and KOR dependent | 6.22 ± 0.43 | < 20 | 599 | no activity | 27 | 50 ± 5% | < 20 | – | – | – | – | – | Ki (mDOR [2]; read-out: affinity (Ki) mDOR, 125I-IBNtxA (0.1 nM)): 823 ± 127 nM; Ki (hMOR [4]): 122 nM; Emax% ± SEM Gi-1 activation hKOR ([5]; normalized to U50,488H, listed as Isopaynantheine): 80.5 ± 2.9%; Ki (hSERT): 5110 nM; EC50 (mKOR; read-out: mKOR EC50, [35S]GTPγS): 282 ± 18 nM; Emax% ± SEM βarrestin-2 antagonism at MOR (hMOR [6]): 106 ± 8.67%; Ki ([11]; read-out: affinity (Ki) mKOR, 125I-IBNtxA (0.1 nM)): 0.325 µM and 0.326 µM; Emax% ± SEM Gi-1 antagonism at MOR (hMOR [12]): 156.91 ± 13.49%; Ki (hDAT): 5070 nM; Ki (hH1): 206 nM; EC50 (mMOR; read-out: mMOR EC50, [35S]GTPγS): 192 ± 5.8 nM; Emax% ± SEM βarrestin-2 recruitment hMOR (hMOR [14]; normalized to DAMGO): < 20%; Ki ([15]; read-out: affinity (Ki) mMOR): 91.8 ± 5.8 nM
CC[C@H]1CN2CCc3c([nH]c4cccc(OC)c34)[C@H]2C[C@@H]1/C(=C\OC)C(=O)OC [mitraciliatine] | 2150 | – | – | 6.57 ± 0.06 | 114.32 ± 2.42 | 269 | – | MOR dependent and, surprisingly, independent of KOR | 6.42 ± 0.06 | 104 | 383 | – | 73 | – | < 20 | no respiratory depression | no significant hyperlocomotion | – | – | – | effect on breath rate (C57BL/6J mice [16]; listed as Mitraciliatine): increase in breath rates; maximal antinociception (ceiling effect, % MPE) (C57BL/6J mice [7]; i.c.v., WT mice, mitraciliatine at 100 nmol): 67%; Emax% ± SEM βarrestin-2 recruitment hKOR (hKOR [8]; normalized to U50,488H, listed as Mitraciliatine): 104.13 ± 2.57%; Ki (hNET): 6600 nM
corynantheidine | – | 37% and 37.2 ± 4.30% | < 20 | – | – | – | no activity | – | – | – | – | no activity | – | – | < 20 | – | – | 20 | no activity | – | Emax% ± SEM Gi-1 activation hKOR [5]: < 20%; maximal antinociception (ceiling effect, % MPE) (C57BL/6J mice [7]; mouse, in vivo): 50%; receptor dependence of antinociception (C57BL/6J mice [7]; mouse, in vivo): MOR dependent; agonist action in guinea pig ileum (MOR): no agonist actions; Emax% ± SEM βarrestin-2 recruitment hKOR (hKOR [8]): < 20%; mDOR EC50 (mDOR [9]; [35S]GTPγS): no activity; fold less potent than DAMGO, [35S]GTPγS (mMOR; mMOR): about 30 fold; mMOR Emax (mMOR; listed as corynanthedine): 74.13 ± 1.24%; Emax% ± SEM βarrestin-2 recruitment hMOR (hMOR [14]): < 20%; fold higher mMOR affinity than mitragynine ([15]; same binding assay): ~4 fold; Ki (hNMDA): 83 nM
CC[C@@H]1CN2CC[C@]3(C(=O)Nc4ccccc43)[C@@H]2C[C@@H]1/C(=C\OC)C(=O)OC [corynoxine B] | – | – | – | – | – | – | no activity | – | – | – | – | no activity | – | no activity | – | – | – | – | – | 1680 ± 261 | Ki [11, 21]: > 1 µM; Ki ([11]; affinity (Ki) mKOR, 125I-IBNtxA (0.1 nM), μM): > 10 µM; Ki ([15]; affinity (Ki) mMOR): 5010 ± 388 nM
CN1CC[C@]23c4c5ccc(O)c4O[C@H]2[C@@H](O)C=C[C@H]3[C@H]1C5 [morphine, reference compound] | – | – | – | – | – | – | – | – | – | – | – | – | – | – | – | significant decrease in breath rate | significant locomotor effect | – | – | – | antinociception ED50 (and 95% C.I.) (C57BL/6J mice [7]; i.c.v.): 4.77 (1.49–28.8) nmol
CC[C@@H]1CN2CC[C@@]3(C(=O)Nc4ccccc43)[C@@H]2C[C@@H]1/C(=C\OC)C(=O)OC [corynoxine] | – | – | – | – | – | – | no activity | MOR dependent | – | – | – | no activity | – | 136.4 ± 3.3% | – | no depression of breath rate | did not produce significant hyperlocomotion | 58 | no activity | 1270 ± 226 | EC50 [1]: 1630 nM; Emax ([1]; HEK-293T, read-out: Emax% ± SEM Gi-1 activation hMOR): 96.5 ± 4.69%; effect on breath rate (C57BL/6J mice [16]; listed as Corynoxine): increase in breath rates; Emax (hDOR [3]; HEK-293T, read-out: Emax% ± SEM Gi-1 activation hDOR): < 20%; Emax ([5]; HEK-293T, read-out: Emax% ± SEM Gi-1 activation hKOR): < 20%; antinociception ED50 (and 95% C.I.) (C57BL/6J mice [7]; i.c.v.): 3.43 (0.53–6.41) nmol; Emax (hKOR [8]; HEK-293T, read-out: Emax% ± SEM βarrestin-2 recruitment hKOR): < 20%; Ki [11, 21]: 3.08 ± 1.73 µM; Ki (hMOR [18]): 16.4 nM; EC50 (mMOR): 203 ± 4.4 nM; Emax at 1 µM (mMOR; read-out: mMOR Emax, relative to DAMGO at 1000 nM): 136%; Emax (hDOR [13]; HEK-293T, read-out: Emax% ± SEM βarrestin-2 recruitment hDOR): < 20%; Emax (hMOR [14]; HEK-293T, read-out: Emax% ± SEM βarrestin-2 recruitment hMOR): < 20%; Ki ([15]; affinity (Ki) mMOR): 140 nM and 141 nM
